Experimental findings from ChEMBL document CHEMBL1641538, “Synthesis of a novel human PPARδ selective agonist and its stimulatory effect on oligodendrocyte differentiation” (Bioorg Med Chem Lett, 2011) are described below.

The structures appear in SMILES notation. Calls of active or inactive are those of the source. The rule behind the calls is not given here.

Assay [1] concerns the target T1, Peroxisome proliferator-activated receptor gamma (Homo sapiens, UniProt P37231).
T1 sequence (P37231 whole entry): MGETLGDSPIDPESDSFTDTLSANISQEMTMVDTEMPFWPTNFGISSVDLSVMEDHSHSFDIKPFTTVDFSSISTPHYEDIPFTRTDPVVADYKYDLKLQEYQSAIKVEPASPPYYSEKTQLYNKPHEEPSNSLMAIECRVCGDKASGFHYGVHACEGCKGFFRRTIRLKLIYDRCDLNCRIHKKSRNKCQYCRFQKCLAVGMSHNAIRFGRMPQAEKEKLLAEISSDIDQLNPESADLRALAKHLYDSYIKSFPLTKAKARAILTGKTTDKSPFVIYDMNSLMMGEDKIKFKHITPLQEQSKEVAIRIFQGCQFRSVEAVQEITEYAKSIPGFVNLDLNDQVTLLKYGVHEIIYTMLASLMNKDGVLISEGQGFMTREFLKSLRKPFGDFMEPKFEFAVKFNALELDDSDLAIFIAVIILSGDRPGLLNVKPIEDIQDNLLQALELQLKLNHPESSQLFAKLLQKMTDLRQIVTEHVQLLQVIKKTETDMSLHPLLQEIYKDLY
The class given is cell-based, CV-1.

In assay [2] the target is T2, Peroxisome proliferator-activated receptor delta (Homo sapiens, UniProt Q03181).
T2 sequence (Q03181 whole entry): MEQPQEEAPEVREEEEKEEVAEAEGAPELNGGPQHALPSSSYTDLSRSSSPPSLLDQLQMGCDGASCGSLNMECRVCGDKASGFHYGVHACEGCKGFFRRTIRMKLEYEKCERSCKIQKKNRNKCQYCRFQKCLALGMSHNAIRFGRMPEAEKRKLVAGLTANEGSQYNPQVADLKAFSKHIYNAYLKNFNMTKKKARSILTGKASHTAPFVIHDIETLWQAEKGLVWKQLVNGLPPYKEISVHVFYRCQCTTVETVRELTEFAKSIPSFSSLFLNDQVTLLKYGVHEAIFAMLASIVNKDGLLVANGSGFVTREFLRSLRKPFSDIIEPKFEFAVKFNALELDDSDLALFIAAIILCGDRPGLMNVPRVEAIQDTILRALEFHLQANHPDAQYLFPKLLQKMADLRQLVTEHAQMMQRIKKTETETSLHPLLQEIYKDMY
The assay is described as follows: Transactivation of Gal4-fused human PPARdelta DNA binding domain expressed in african green monkey CV1 cells by luciferase reporter gene assay. The class given is cell-based, CV-1. In general terms: In a reporter assay the amount or activity of a reporter protein is the signal.

Another assay is filed under the species Rattus norvegicus. Briefly: Induction of Wistar rat oligodendrocyte differentiation at 0.1 uM after 3 days by O1 antibody staining. The class given is functional.
Assay [3] has as its target T3, Peroxisome proliferator-activated receptor alpha (Homo sapiens, UniProt Q07869).
T3 sequence (Q07869 whole entry): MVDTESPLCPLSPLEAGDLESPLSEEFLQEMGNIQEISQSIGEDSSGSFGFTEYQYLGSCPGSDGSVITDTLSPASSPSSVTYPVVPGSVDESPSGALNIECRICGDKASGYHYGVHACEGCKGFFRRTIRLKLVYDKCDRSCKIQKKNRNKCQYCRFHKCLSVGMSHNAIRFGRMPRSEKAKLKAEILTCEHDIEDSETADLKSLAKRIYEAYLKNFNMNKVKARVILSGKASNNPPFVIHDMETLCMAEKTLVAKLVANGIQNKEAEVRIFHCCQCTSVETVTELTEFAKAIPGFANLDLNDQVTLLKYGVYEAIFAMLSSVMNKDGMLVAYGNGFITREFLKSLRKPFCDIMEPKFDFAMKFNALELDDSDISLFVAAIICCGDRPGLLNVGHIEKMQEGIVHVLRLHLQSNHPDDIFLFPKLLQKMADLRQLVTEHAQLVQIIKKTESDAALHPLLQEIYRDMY
Briefly: Transactivation of Gal4-fused human PPARalpha DNA binding domain expressed in african green monkey CV1 cells by luciferase reporter gene assay. Type of assay: cell-based, CV-1.

Assay [4] deals with T3, Peroxisome proliferator-activated receptor alpha. The assay is described as follows: Transactivation of full length human PPARalpha expressed in african green monkey CV1 cells by luciferase reporter gene assay. Type of assay: cell-based, CV-1.
For another assay, the species on record is Homo sapiens. The assay is described as follows: Selectivity ratio of EC50 for full length human PPARalpha to EC50 for full length human PPARdelta.
Assay [5] has as its target T2, Peroxisome proliferator-activated receptor delta. Briefly: Transactivation of full length human PPARdelta expressed in african green monkey CV1 cells by luciferase reporter gene assay. Type of assay: cell-based, CV-1.
The target of assay [6] is PPAR delta/gamma (Homo sapiens) (UniProt P37231+Q03181). Briefly: Selectivity ratio of EC50 for full length human PPARgamma to EC50 for full length human PPARdelta.
For assay [7], the target named is T1, Peroxisome proliferator-activated receptor gamma. Briefly: Transactivation of full length human PPARgamma expressed in african green monkey CV1 cells by luciferase reporter gene assay. Type of assay: cell-based, CV-1.

A word on the EC50: it is the concentration at which the effect is half-maximal. For the molecule `Cc1nc(-c2ccc(C(F)(F)F)cc2)sc1C(=O)NCc1ccc(OC(C)(C)C(=O)O)cc1` [GW590735], the EC50 was above 10 µM in [1] and 2.6 µM in assay [2].

As for `Cc1cc2c(CCc3nc(-c4ccc(Cl)cc4Cl)oc3C(C)C)noc2cc1OCC(=O)O`, the outcome in the assay listed under Rattus norvegicus was Active. The EC50 in [3] is above 10 µM; in [4] it was above 10 µM; in [5] it was 0.0045 µM; in [1], above 10 µM; in assay [7], above 10 µM. The Ratio EC50 (in the assay filed under Homo sapiens; in [6]) was 2000 throughout.
